Among the data in patent US9249114B2, “Thiazole derivatives” (Merck Patent GmbH, priority 2011, dated 2016) are IC50 values, retold here.

For assay [1], the target named is TANK binding kinase (TBK1) (Homo sapiens (Human), UniProt Q9UHD2). Description: TBK1 enzyme assay (384-well Flashplate kinase assay). It counts as biochemical. The conditions noted are these: 10 μM ATP, 120 Min at 30° C. On the procedure: Test for the Inhibition of TBK1
The kinase assay is performed as 384-well Flashplate assay (for e.g. Topcount measurement. 0.6 nM TANK binding kinase (TBK1), 800 nM biotinylated MELK-derived peptide (Biotin-Ah-Ah-[…]) SEQ ID NO: 2 and 10 μM ATP (spiked with 0.25 μCi ^33P-ATP/well) are incubated in a total volume of 50 μl (10 mM MOPS, 10 mM Mg-acetat, 0.1 mM EGTA, 1 mM DTT, 0.02% Brij35, 0.1% BSA, pH 7.5) with or without test compound for 120 Min at 30° C. The reaction is stopped with 25 μl 200 mM EDTA. After 30 Min at room temperature the liquid is removed and each well washed thrice with 100 μl 0.9% sodium chloride solution. Nonspecific reaction is determined in presence of 100 nM Staurosporine. Radioactivity is measured in a Topcount (PerkinElmer). Results (e.g. IC50-values) are calculated with program tools provided by the IT-department (e.g. AssayExplorer, Symyx).

The target of another assay is IKKε (Homo sapiens (Human), UniProt Q14164). The assay can be described thus: IKKε kinase assay (384-well Flashplate). The class given is biochemical. The conditions noted are these: 10 μM ATP, 2 hours at 30° C.; read-out: IKKε enzyme assay IC50. On the procedure:
Test for the Inhibition of IKKε
IKKε—Kinase Assay (IKKepsilon)
The kinase assay is performed either as 384-well Flashplate assay (for e.g. Topcount measurement). […] The reaction is stopped with 25 μl 200 mM EDTA. After 30 Min at room temperature the liquid is removed and each well washed thrice with 100 μl 0.9% sodium chloride solution. […] Radioactivity is measured with Topcount (PerkinElmer). Results (e.g. IC50-values) are calculated with program tools provided by the IT-department (e.g. AssayExplorer, Symyx).

Structures are written as SMILES.

Sequence of IKKε (Q14164 whole entry): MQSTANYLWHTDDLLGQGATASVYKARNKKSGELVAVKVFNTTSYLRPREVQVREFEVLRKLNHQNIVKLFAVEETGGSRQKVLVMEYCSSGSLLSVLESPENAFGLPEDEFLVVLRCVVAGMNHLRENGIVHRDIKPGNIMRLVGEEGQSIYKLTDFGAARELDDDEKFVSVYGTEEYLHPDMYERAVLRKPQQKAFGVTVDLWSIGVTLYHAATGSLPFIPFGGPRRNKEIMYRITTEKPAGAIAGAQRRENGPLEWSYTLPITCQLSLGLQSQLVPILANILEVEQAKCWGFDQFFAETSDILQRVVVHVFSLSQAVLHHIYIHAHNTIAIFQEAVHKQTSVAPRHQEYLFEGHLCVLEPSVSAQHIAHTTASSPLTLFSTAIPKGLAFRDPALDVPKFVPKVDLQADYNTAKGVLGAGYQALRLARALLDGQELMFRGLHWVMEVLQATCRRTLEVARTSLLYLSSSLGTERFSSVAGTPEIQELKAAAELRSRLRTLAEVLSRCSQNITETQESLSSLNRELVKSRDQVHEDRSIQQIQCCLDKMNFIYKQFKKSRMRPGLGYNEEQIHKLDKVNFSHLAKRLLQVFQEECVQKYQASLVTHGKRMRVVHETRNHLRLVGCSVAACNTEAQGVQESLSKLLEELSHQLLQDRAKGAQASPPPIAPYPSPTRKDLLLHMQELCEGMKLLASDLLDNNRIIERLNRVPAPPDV
Sequence of TANK binding kinase (TBK1) (Q9UHD2 whole entry): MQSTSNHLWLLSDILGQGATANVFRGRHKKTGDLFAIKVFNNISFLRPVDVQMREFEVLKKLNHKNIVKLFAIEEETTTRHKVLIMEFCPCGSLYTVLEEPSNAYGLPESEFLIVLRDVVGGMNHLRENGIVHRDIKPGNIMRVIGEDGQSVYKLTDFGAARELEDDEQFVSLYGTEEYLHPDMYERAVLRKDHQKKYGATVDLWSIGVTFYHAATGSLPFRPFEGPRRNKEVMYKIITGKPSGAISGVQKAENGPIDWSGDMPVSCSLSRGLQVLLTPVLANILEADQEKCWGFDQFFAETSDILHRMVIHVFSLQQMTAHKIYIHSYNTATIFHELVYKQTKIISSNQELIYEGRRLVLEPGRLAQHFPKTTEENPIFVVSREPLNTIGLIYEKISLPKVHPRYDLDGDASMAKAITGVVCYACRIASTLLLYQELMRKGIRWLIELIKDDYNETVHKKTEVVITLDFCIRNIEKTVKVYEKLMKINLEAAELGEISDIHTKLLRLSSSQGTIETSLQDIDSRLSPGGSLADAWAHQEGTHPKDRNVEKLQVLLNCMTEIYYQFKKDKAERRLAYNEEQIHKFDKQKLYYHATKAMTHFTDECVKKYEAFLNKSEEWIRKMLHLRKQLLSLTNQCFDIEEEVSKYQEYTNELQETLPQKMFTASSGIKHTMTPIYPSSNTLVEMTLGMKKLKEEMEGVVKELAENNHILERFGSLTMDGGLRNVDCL

Compound `CNC(=O)CCCCc1ccc(C(=O)Nc2sc(-c3ccncc3)nc2C(N)=O)cc1` [Compound A32, 5-[4-(4-methylcarbamoyl-butyl)-benzoylamino]-2-pyridin-4-yl-thiazole-4-carboxylic acid amide] displayed a half-maximal inhibitory concentration (IC50) in assay [1] of 240 nM.
The same measure, in the same setting: under `CN1CCN(C(=O)c2ccc(C(=O)Nc3sc(-c4ccncc4)nc3C(N)=O)cc2)CC1` [Compound A34, 5-[4-(4-methyl-piperazine-1-carbonyl)-benzoylamino]-2-pyridin-4-yl-thiazole-4-carboxylic acid amide] stands 310 nM; under `NC(=O)c1nc(-c2ccncc2)sc1NC(=O)c1cccs1` [Compound A62, 2-pyridin-4-yl-5-[(2-thienylcarbonyl)amino]-1,3-thiazole-4-carboxamide], 2000 nM.
For `NC(=O)c1nc(-c2ccncc2)sc1NC(=O)c1ccc(CN2CCNCC2)cc1` [Compound A24, 5-(4-piperazin-1-ylmethyl-benzoylamino)-2-pyridin-4-yl-thiazole-4-carboxylic acid amide], the values for the IC50 (in assay [1]; on IKKε) were 95 nM and 260 nM, respectively.
As to `NC(=O)c1nc(-c2ccncc2)sc1NC(=O)c1cc[nH]n1` [Compound A63, 5-[(1H-pyrazol-3-ylcarbonyl)amino]-2-pyridin-4-yl-1,3-thiazole-4-carboxamide], the results for the IC50 (in assay [1]; at IKKε) were 2700 nM and 7300 nM, respectively.
Turning to `Cc1ccc(C(=O)Nc2sc(-c3ccncc3)nc2C(N)=O)cc1` [Compound A55, 5-(4-methyl-benzoylamino)-2-pyridin-4-yl-thiazole-4-carboxylic acid amide], the IC50 in assay [1] stood at 10000 nM; at IKKε it was 5300 nM.
`COc1ccc(C(=O)Nc2sc(-c3ccncc3)nc2C(N)=O)cc1OC` [Compound A41, 5-(3,4-dimethoxy-benzoylamino)-2-pyridin-4-yl-thiazole-4-carboxylic acid amide]: the IC50 in assay [1] was determined as 1500 nM.
For `NC(=O)c1nc(-c2ccncc2)sc1NC(=O)c1ccoc1` [Compound A64, 5-(3-furoylamino)-2-pyridin-4-yl-1,3-thiazole-4-carboxamide], the IC50 in assay [1] came out at 4600 nM.
As to `Cc1cc(-c2nc(C(N)=O)c(NC(=O)c3ccc(CN4CCN(C)CC4)cc3)s2)cc(C)n1` [Compound A16, 2-(2,6-dimethyl-pyridin-4-yl)-5-[4-(4-methyl-piperazin-1-ylmethyl)-benzoylamino]-thiazole-4-carboxylic acid amide], the IC50 on IKKε came to 3800 nM.
`CN(C)C(=O)CCCCc1ccc(C(=O)Nc2sc(-c3ccncc3)nc2C(N)=O)cc1` [Compound A25, 5-[4-(4-dimethylcarbamoyl-butyl)-benzoylamino]-2-pyridin-4-yl-thiazole-4-carboxylic acid amide] yielded an IC50 in assay [1] of 99 nM.
In the case of `NC(=O)c1nc(-c2ccncc2)sc1NC(=O)c1ccc[nH]1` [Compound A61, 2-pyridin-4-yl-5-[(1H-pyrrol-2-ylcarbonyl)amino]-1,3-thiazole-4-carboxamide], the IC50 in assay [1] is 120 nM; at IKKε, 140 nM.
`CC(C)(C)OC(=O)N1CCN(c2ccc(C(=O)Nc3sc(-c4ccncc4)nc3C(N)=O)cn2)CC1` [Compound A39, 4-[5-(4-Carbamoyl-2-pyridin-4-yl-thiazol-5-ylcarbamoyl)-pyridin-2-yl]-piperazine-1-carboxylic acid tert-butyl ester] had an IC50 in assay [1] of 1200 nM.
With `CC(=O)N1CCC(Cc2ccc(C(=O)Nc3sc(-c4ccncc4)nc3C(N)=O)cc2)CC1` [Compound A30, 5-[4-(1-acetyl-piperidin-4-ylmethyl)-benzoylamino]-2-pyridin-4-yl-thiazole-4-carboxylic acid amide], the IC50 in assay [1] was 200 nM.
For `CN1CCN(Cc2ccc(Nc3sc(-c4ccncc4)nc3C(N)=O)cc2)CC1` [Compound A14, 5-[4-(4-methyl-piperazin-1-ylmethyl)-phenylamino]-2-pyridin-4-yl-thiazole-4-carboxylic acid amide], the results for the IC50 (in assay [1]; at IKKε) were 1700 nM and 420 nM, respectively.
In assay [1], `NC(=O)c1nc(-c2ccncc2)sc1NC(=O)c1ccc(CN2CCOCC2)cc1` [Compound A36, 5-(4-morpholin-4-ylmethyl-benzoylamino)-2-pyridin-4-yl-thiazole-4-carboxylic acid amide] displayed an IC50 of 645 nM.
`NC(=O)c1nc(-c2ccncc2)sc1NC(=O)c1ccc(CC2CCNCC2)cc1` [Compound A29, 5-(4-piperidin-4-ylmethyl-benzoylamino)-2-pyridin-4-yl-thiazole-4-carboxylic acid amide]: the IC50 in assay [1] worked out at 190 nM.
For `CN1CCN(Cc2ccc(C(=O)Nc3sc(-c4ccnc(C(F)(F)F)c4)nc3C(N)=O)cc2)CC1` [Compound A8, 5-[4-(4-methyl-piperazin-1-ylmethyl)-benzoylamino]-2-(2-trifluoromethyl-pyridin-4-yl)-thiazole-4-carboxylic acid amide], the 50% inhibitory concentration (IC50) amounted to 6300 nM in assay [1] and 2100 nM on IKKε.
Regarding `CN1CCN(Cc2ccc(C(=O)Nc3sc(-c4ccncc4)nc3C#N)cc2)CC1` [Compound A45, N-(4-cyano-2-pyridin-4-yl-thiazol-5-yl)-4-(4-methyl-piperazin-1-ylmethyl)-benzamide], the IC50 in assay [1] turned out to be 8200 nM.
Turning to `NC(=O)c1nc(-c2ccncc2)sc1NC(=O)c1ccc(N2CCOCC2)nc1` [Compound A43, N-(4-carbamoyl-2-pyridin-4-yl-thiazol-5-yl)-6-morpholin-4-yl-nicotinamide], the IC50 was 7300 nM in assay [1] and 2000 nM on IKKε.
Take `CN1CCN(Cc2ccc(C(=O)Nc3sc(-c4ccnc(C#N)c4)nc3C(N)=O)cc2)CC1` [Compound A9, 2-(2-cyano-pyridin-4-yl)-5-[4-(4-methyl-piperazin-1-ylmethyl)-benzoylamino]-thiazole-4-carboxylic acid amide]: the values for the IC50 (in assay [1]; on IKKε) were 2000 nM and 740 nM, respectively.
Take `CN1CCN(Cc2ccc(C(=O)Nc3sc(-c4ccncc4Br)nc3C(N)=O)cc2)CC1` [Compound A18, 2-(3-bromo-pyridin-4-yl)-5-[4-(4-methyl-piperazin-1-ylmethyl)-benzoylamino]-thiazole-4-carboxylic acid amide]: the IC50 in assay [1] came out at 310 nM; on IKKε it was 190 nM.
The compound `NC(=O)c1nc(-c2ccncc2)sc1NC(=O)c1ccc(CN2CCCC2)cc1` [Compound A38, 2-pyridin-4-yl-5-(4-pyrrolidin-1-ylmethyl-benzoylamino)-thiazole-4-carboxylic acid amide] showed an IC50 in assay [1] of 1160 nM.
`NC(=O)c1nc(-c2ccncc2)sc1NC(=O)c1ccc(CC2CCN(C(N)=O)CC2)cc1` [Compound A23, 4-[4-(4-carbamoyl-2-pyridin-4-yl-thiazol-5-ylcarbamoyl)-benzyl]-piperidine-1-carboxylic acid amide] displayed an IC50 in assay [1] of 94 nM.
In turn, `CN(C)C(=O)CCCCCc1ccc(C(=O)Nc2sc(-c3ccncc3)nc2C(N)=O)cc1` [Compound A35, 5-[4-(5-dimethylcarbamoyl-pentyl)-benzoylamino]-2-pyridin-4-yl-thiazole-4-carboxylic acid amide] displayed an IC50 in assay [1] of 580 nM.
The compound `COCCNCc1ccc(C(=O)Nc2sc(-c3ccncc3)nc2C(N)=O)cc1` [Compound A33, 5-{4-[(2-methoxy-ethylamino)-methyl]-benzoylamino}-2-pyridin-4-yl-thiazole-4-carboxylic acid amide] yielded an IC50 in assay [1] of 260 nM.
In assay [1], `NC(=O)c1nc(-c2ccncc2)sc1NC(=O)c1ccccc1` [Compound A56, 5-benzoylamino-2-pyridin-4-yl-thiazole-4-carboxylic acid amide] showed an IC50 of 3600 nM.
Consider `CN1CCN(Cc2ccc(C(=O)Nc3sc(-c4ccncc4)nc3C(N)=O)cc2)CC1` [Compound A4, 5-[4-(4-methyl-piperazin-1-ylmethyl)-benzoylamino]-2-pyridin-4-yl-thiazole-4-carboxylic acid amide], for which the IC50 in assay [1] stood at 300 nM.
As for `CN(C)CCNCc1ccc(C(=O)Nc2sc(-c3ccncc3)nc2C(N)=O)cc1` [Compound A31, 5-{4-[(2-dimethylamino-ethylamino)-methyl]-benzoylamino}-2-pyridin-4-yl-thiazole-4-carboxylic acid amide], in assay [1], the IC50 is 210 nM.
On to `NC(=O)c1nc(-c2ccncc2)sc1NC(=O)c1ccc(CCCCCC(=O)O)cc1` [Compound A28, 6-[4-(4-carbamoyl-2-pyridin-4-yl-thiazol-5-ylcarbamoyl)-phenyl]-hexanoic acid], for which, in assay [1], the IC50 was found to be 160 nM.
`CN1CCN(Cc2ccc(C(=O)Nc3sc(-c4ccnc(Cl)c4)nc3C(N)=O)cc2)CC1` [Compound A5, 2-(2-chloro-pyridin-4-yl)-5-[4-(4-methyl-piperazin-1-ylmethyl)-benzoylamino]-thiazole-4-carboxylic acid amide]: in assay [1], the IC50 was determined as 1400 nM.
`NC(=O)c1nc(-c2ccncc2)sc1NC(=O)c1cnn(CC2CCNCC2)c1` [Compound A44, 5-[(1-piperidin-4-ylmethyl-1H-pyrazole-4-carbonyl)-amino]-2-pyridin-4-yl-thiazole-4-carboxylic acid amide] registered a half-maximal inhibitory concentration (IC50) in assay [1] of 7900 nM.

One may read the IC50 as the concentration that gives 50% inhibition.
